Results reported in US10344026B2, “Compositions and methods of targeting mutant K-ras” (NANTBIO, INC., priority 2017, dated 2019).

How the values were obtained:
Assay type in all cases: cell-based
K-Ras G12D = molecular target: T1, K-Ras G12D (Homo sapiens, UniProt P01116, G12D); test: G-LISA Ras activation, 293H cells transfected with G12D mutant; settings: compound 1 hour
T1 construct: expressed in transfected cells; host or cells: 293H cells
Outline: (§1)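 293H cells were transfected with wild-type or mutant Ras plasmid (Lipofectamine 3000), then exposed next day to compounds at 3.125-25 μM for 1 hour. Wild-type transfectants received 100 ng/ml EGF for 2 minutes before ice-cold PBS wash, lysis on ice and G-LISA readout of active Ras.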

[1] = system: Ishikawa (K-Ras wild type cell line); test: Viability assay (CellTiterBlue, 72 hr) Ishikawa; settings: Homo sapiens, GI50, CellTiterBlue, Ishikawa K-Ras wild-type
Outline: (§2)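 1000 cells/well, 18 hr pre-incubation at 37 °C; compound added from DMSO stock, 0.5% DMSO final; 72 hr; CellTiterBlue 3 hr, fluorescence Ex550/Em590; GI50 normalized to DMSO = 100%, 100 uM tamoxifen = 0% viability.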

[2] = system: U87-MG (K-Ras wild type cell line); test: Viability assay (CellTiterBlue, 72 hr) U87-MG; settings: Homo sapiens, U-87 MG, GI50, CellTiterBlue, U87-MG K-Ras wild-type
Outline: as §2

[3] = system: HCC827 (K-Ras wild type cell line); test: Viability assay (CellTiterBlue, 72 hr) HCC827; settings: Homo sapiens, GI50, CellTiterBlue, HCC827 K-Ras wild-type
Outline: as §2

Panc1-G12D = test: Viability assay (CellTiterBlue, 72 hr) Panc1; settings: Homo sapiens, PANC-1, GI50, CellTiterBlue, Panc1 K-Ras G12D, read-out: 72 hr Cell Viability Panc1 (G12D)
Outline: as §2

Panc10.05-G12D = test: Viability assay (CellTiterBlue, 72 hr) Panc10.05; settings: Homo sapiens, Panc1005, GI50, CellTiterBlue, Panc10.05 K-Ras G12D, read-out: 72 hr Cell Viability Panc10.05 (G12D)
Outline: as §2

HCT116-G31D = test: Viability assay (CellTiterBlue, 72 hr) HCT116; settings: Homo sapiens, HCT-116, GI50, CellTiterBlue, HCT116 K-Ras G13D, read-out: 72 hr Cell Viability HCT116 (G13D)
Outline: as §2

[4] = system: phospho-ERK in HCC827 (Wild-type); test: In-Cell Western phospho-ERK, HCC827; settings: Homo sapiens, 1 h; HCC827, one hour treatment; read-out: In-Cell Western HCC827 (Wild-type) Erk (P)
Outline: (§3)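 EC50 values come from immunofluorescence quantitation of phosphorylated ERK or Akt in fixed cells exposed to compound for one hour at 0.5% DMSO. Maximal inhibition is defined by 1 uM BEZ235 for Akt and 1 uM MEK Inhibitor II for ERK.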

[5] = system: phospho-Akt in HCC827 (Wild-type); test: In-Cell Western phospho-Akt, HCC827; settings: Homo sapiens, 1 h; HCC827, one hour treatment; read-out: In-Cell Western HCC827 (Wild-type) Akt (P)
Procedure: In-cell phosphorylation assays for Erk and Akt were performed on several of the compounds and exemplary results are shown in Table 3 below using HCC827 and A375 cell lines for wild type K-Ras and Panc1 and Panc10.05 cell lines for G12D K-Ras mutants. Results are expressed in μM and corresponding structures are shown in FIGS. 2A-2G and Examples 1-152, above.
Cells are seeded in complete medium into black sided, clear-bottom 384-well microplates at 3000 cells/[…]/well. Plates are returned to 37° C. CO2 incubator for 18 hr. Drug is made as 200× in DMSO and diluted into medium to 10×. To each well is added 4 ul 10× test article or controls, and plates are returned to the incubator. Final assay DMSO concentration is 0.5%. After one hour, cells are fixed in formaldehyde, rinsed & permeabilized with triton X-100, and blocked with BSA/Goat serum blocking solution. Primary phospho-Akt and phospho-ERK antibodies are added and plates are incubated overnight at 4° C. Plates are rinsed with Tween-20 wash buffer and secondary antibody (Goat anti-rabbit, Thermofisher) is added. After 2 hours, plates are rinsed in Tween-20 wash buffer, and then PBS. Plates are imaged on the Celigo (Nexcelom) and cellular fluorescence is quantitated. Full inhibition of phospho-Akt is achieved with 1 uM BEZ235 (Sellekchem), while full inhibition of phospho-ERK is achieved with 1 uM MEK Inhibitor II Calbiochem). EC50 values are calculated using Graphpad Prism.

[6] = system: phospho-ERK in Panc1 (G12D); test: In-Cell Western phospho-ERK, Panc1; settings: Homo sapiens, PANC-1, 1 h; Panc1, one hour treatment; read-out: In-Cell Western Panc1 (G12D) Erk (P)
Outline: as §3

[7] = system: phospho-Akt in Panc1 (G12D); test: In-Cell Western phospho-Akt, Panc1; settings: Homo sapiens, PANC-1, 1 h; Panc1, one hour treatment; read-out: In-Cell Western Panc1 (G12D) Akt (P)
Outline: as §3

wild type K-Ras = molecular target: T2, wild type K-Ras (Homo sapiens, UniProt P01116); test: G-LISA Ras activation, 293H cells transfected with Ras wild-type, EGF stimulated; settings: compound 1 hour, then 100 ng/ml EGF 2 minutes
T2 construct: expressed in transfected cells; host or cells: 293H cells
T2 sequence (P01116 whole entry): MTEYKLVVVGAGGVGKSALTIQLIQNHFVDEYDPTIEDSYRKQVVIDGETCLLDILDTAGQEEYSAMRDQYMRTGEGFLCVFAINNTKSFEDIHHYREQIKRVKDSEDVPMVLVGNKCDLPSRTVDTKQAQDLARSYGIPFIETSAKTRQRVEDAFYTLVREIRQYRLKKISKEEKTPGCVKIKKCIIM
Outline: as §1

[8] = system: phospho-ERK in Panc10.05 (G12D); test: In-Cell Western phospho-ERK, Panc10.05; settings: Homo sapiens, Panc1005, 1 h; Panc10.05, one hour treatment; read-out: In-Cell Western Panc10.05 (G12D) Erk (P)
Outline: as §3

[9] = system: phospho-Akt in Panc10.05 (G12D); test: In-Cell Western phospho-Akt, Panc10.05; settings: Homo sapiens, Panc1005, 1 h; Panc10.05, one hour treatment; read-out: In-Cell Western Panc10.05 (G12D) Akt (P)
Outline: as §3

T1 sequence (P01116 whole entry G12D): as the sequence (P01116 whole entry) above, with G12D counted along it

SMILES | IC50 (K-Ras G12D) | IC50 [1] | IC50 [2] | IC50 [3] | IC50 (Panc1-G12D) | IC50 (Panc10.05-G12D) | IC50 (HCT116-G31D) | EC50 [4] | EC50 [5] | EC50 [6] | EC50 [7] | IC50 (wild type K-Ras) | EC50 [8] | EC50 [9]
CCn1cc(C(=O)Nc2nc(-c3ccc4c(c3)CCC(=O)N4)cs2)cn1 [Compound 34, 1-ethyl-N-(4-(2-oxo-1,2,3,4-tetrahydroquinolin-6-yl)thiazol-2-yl)-1H-pyrazole-4-carboxamide] | 15.8 µM | 9 µM | > 25 µM | > 25 µM | > 25 µM | 7 µM | > 25 µM | > 25 µM | > 25 µM | 15 µM | > 25 µM |  |  | 
Cn1ncc(C(=O)Nc2nc(-c3ccc4c(c3)CCC(=O)N4)cs2)c1C1CC1 [Compound 35, 5-cyclopropyl-1-methyl-N-(4-(2-oxo-1,2,3,4-tetrahydroquinolin-6-yl)thiazol-2-yl)-1H-pyrazole-4-carboxamide] | > 25 µM | 19 µM | 6 µM | 7 µM | > 25 µM | > 25 µM | > 25 µM | 11 µM | > 25 µM | > 25 µM | > 25 µM |  |  | 
Cn1cc(C(=O)Nc2nc(-c3ccc4c(c3)CCC(=O)N4)cs2)c(C(F)(F)F)n1 [Compound 30, 1-methyl-N-(4-(2-oxo-1,2,3,4-tetrahydroquinolin-6-yl)thiazol-2-yl)-3-(trifluoromethyl)-1H-pyrazole-4-carboxamide] | > 25 µM | 18 µM | > 25 µM | > 25 µM | > 25 µM | 23 µM | > 25 µM | 16 µM | > 25 µM | 8 µM | > 25 µM |  |  | 
Cc1nn(C)c(C)c1C(=O)Nc1nc(-c2ccc3c(c2)CCC(=O)N3)cs1 [Compound 40, 1,3,5-trimethyl-N-(4-(2-oxo-1,2,3,4-tetrahydroquinolin-6-yl)thiazol-2-yl)-1H-pyrazole-4-carboxamide] | 6.1 µM | > 25 µM | 9 µM | 7 µM | 24 µM | > 25 µM | > 25 µM | > 25 µM | 25 µM | 8 µM | 7 µM | 23.3 µM |  | 
CCc1nn(C)cc1C(=O)Nc1nc(-c2ccc3c(c2)CCC(=O)N3)cs1 [Compound 37, 3-ethyl-1-methyl-N-(4-(2-oxo-1,2,3,4-tetrahydroquinolin-6-yl)thiazol-2-yl)-1H-pyrazole-4-carboxamide] | > 25 µM | > 25 µM | 6 µM | 7 µM | > 25 µM | > 25 µM | > 25 µM | > 25 µM | > 25 µM | > 25 µM | 26 µM |  |  | 
CCn1nc(C)c(C(=O)Nc2nc(-c3ccc4c(c3)CCC(=O)N4)cs2)c1C [Compound 41, 1-ethyl-3,5-dimethyl-N-(4-(2-oxo-1,2,3,4-tetrahydroquinolin-6-yl)thiazol-2-yl)-1H-pyrazole-4-carboxamide] | 4.3 µM | 18 µM | 7 µM | 6 µM | 12 µM | 19 µM | > 25 µM | 22 µM | > 25 µM | 2 µM | 3 µM | 7.5 µM |  | 
Cc1nc(C2CCOC2O)sc1C(=O)Nc1nc(-c2ccc3c(c2)CCC(=O)N3Cc2cccnc2)cs1 (stereo not shown) [Compound 71, 2-(2-hydroxytetrahydrofuran-3-yl)-4-methyl-N-(4-(2-oxo-1-(pyridin-3-ylmethyl)-1,2,3,4-tetrahydroquinolin-6-yl)thiazol-2-yl)thiazole-5-carboxamide] |  | 6 µM |  | 7 µM | 22 µM | 6 µM | 9 µM | 16 µM | 27 µM | 25 µM | 18 µM |  | 16 µM | > 25 µM
Cc1nn(-c2ccccc2)cc1C(=O)Nc1nc(-c2ccc3c(c2)CCC(=O)N3)cs1 [Compound 31, 3-methyl-N-(4-(2-oxo-1,2,3,4-tetrahydroquinolin-6-yl)thiazol-2-yl)-1-phenyl-1H-pyrazole-4-carboxamide] |  | > 25 µM | > 25 µM | > 25 µM | > 25 µM | > 25 µM | > 25 µM | > 25 µM | > 25 µM | > 25 µM | > 25 µM |  |  | 
Cc1nn(C(C)C)cc1C(=O)Nc1nc(-c2ccc3c(c2)CCC(=O)N3)cs1 [Compound 36, 1-isopropyl-3-methyl-N-(4-(2-oxo-1,2,3,4-tetrahydroquinolin-6-yl)thiazol-2-yl)-1N-pyrazole-4-carboxamide] | 7 µM | 7 µM | > 25 µM | > 25 µM | 14 µM | 3 µM | > 25 µM | 20 µM | > 25 µM | 2 µM | 15 µM | 18.3 µM |  | 
CCn1ncc(C(=O)Nc2nc(-c3ccc4c(c3)CCC(=O)N4)cs2)c1C1CC1 [Compound 33, 5-cyclopropyl-1-ethyl-N-(4-(2-oxo-1,2,3,4-tetrahydroquinolin-6-yl)thiazol-2-yl)-1H-pyrazole-4-carboxamide] | > 25 µM | > 25 µM | > 25 µM | > 25 µM | > 25 µM | > 25 µM | > 25 µM | > 25 µM | > 25 µM | > 25 µM | > 25 µM |  |  | 
Cc1nc(C)c(C(=O)Nc2nc(-c3ccc4c(c3)CCC(=O)N4CC3CCOC3)cs2)o1 (stereo not shown) [Compound 67, 2,4-dimethyl-N-(4-(2-oxo-1-((tetrahydrofuran-3-yl)methyl)-1,2,3,4-tetrahydroquinolin-6-yl)thiazol-2-yl)oxazole-5-carboxamide] | 8 µM | 2 µM |  | 3 µM | 4 µM | 2 µM | 2 µM | 4 µM | 10 µM | 3 µM |  | > 25 µM | 6 µM | 23 µM
